Reference: the NIST ThermoML archive (doi:10.1021/je034224j)

Test: xn = mol fraction of the nth substance listed

CCOC(=O)CC [ethyl propanoate] + O=C=O
Liquid
Settings	mass density [kg/m3]
313 K, 2960 kPa, x2 = 0.5818	971
313 K, 3960 kPa, x2 = 0.6881	973.6
313 K, 4460 kPa, x2 = 0.7509	965.9
313 K, 4960 kPa, x2 = 0.799	960.9
313 K, 5460 kPa, x2 = 0.8301	950.9
313 K, 5970 kPa, x2 = 0.8675	923.3
313 K, 6270 kPa, x2 = 0.8871	902.4
333 K, 2960 kPa, x2 = 0.4093	900.2
333 K, 3460 kPa, x2 = 0.4733	905.3
333 K, 4460 kPa, x2 = 0.5479	902.9
333 K, 5460 kPa, x2 = 0.6214	895.5
333 K, 5960 kPa, x2 = 0.6608	886.6
333 K, 6660 kPa, x2 = 0.7224	868.7
333 K, 7260 kPa, x2 = 0.7819	842.2
353 K, 2960 kPa, x2 = 0.3557	864.4
353 K, 3860 kPa, x2 = 0.4093	864.9
353 K, 4960 kPa, x2 = 0.4746	869.1
353 K, 5960 kPa, x2 = 0.5459	855.1
353 K, 6960 kPa, x2 = 0.6173	854
353 K, 7970 kPa, x2 = 0.6847	850.5
353 K, 8870 kPa, x2 = 0.7529	824.3
373 K, 2960 kPa, x2 = 0.3282	817
373 K, 4460 kPa, x2 = 0.3961	812.4
373 K, 5960 kPa, x2 = 0.4965	802.1
373 K, 7470 kPa, x2 = 0.5422	788.2
373 K, 8970 kPa, x2 = 0.6332	766.7
373 K, 10570 kPa, x2 = 0.7127	735.7
373 K, 10970 kPa, x2 = 0.7391	720.9

CCOC(C)=O [ethyl acetate] + O=C=O
Settings	mass density [kg/m3]
333 K, 5360 kPa, Gas, x2 = 0.1231	987.7
333 K, 5360 kPa, Liquid, x2 = 0.5727	865.7
333 K, 5960 kPa, Gas, x2 = 0.1544	986
333 K, 5960 kPa, Liquid, x2 = 0.6283	836.3
333 K, 6470 kPa, Gas, x2 = 0.1698	986.1
333 K, 6470 kPa, Liquid, x2 = 0.6584	814.8
333 K, 7570 kPa, Gas, x2 = 0.2068	978.7
333 K, 7570 kPa, Liquid, x2 = 0.7586	785.3
333 K, 8460 kPa, Gas, x2 = 0.2731	973.6
333 K, 8460 kPa, Liquid, x2 = 0.8057	746.7
333 K, 8970 kPa, Gas, x2 = 0.3708	969.6
333 K, 8970 kPa, Liquid, x2 = 0.8421	720.4
353 K, 3960 kPa, Gas, x2 = 0.0666	980.2
353 K, 3960 kPa, Liquid, x2 = 0.5532	923.2
353 K, 5060 kPa, Gas, x2 = 0.0935	978.3
353 K, 5060 kPa, Liquid, x2 = 0.5767	920.9
353 K, 6270 kPa, Gas, x2 = 0.127	973.9
353 K, 6270 kPa, Liquid, x2 = 0.6075	919.6
353 K, 7470 kPa, Gas, x2 = 0.1822	967.8
353 K, 7470 kPa, Liquid, x2 = 0.627	901.7
353 K, 8470 kPa, Gas, x2 = 0.22	966.1
353 K, 8470 kPa, Liquid, x2 = 0.6668	854
353 K, 9470 kPa, Gas, x2 = 0.2634	956
353 K, 9470 kPa, Liquid, x2 = 0.7587	746.5
373 K, 5690 kPa, Gas, x2 = 0.0819	964.1
373 K, 5690 kPa, Liquid, x2 = 0.4697	758.8
373 K, 6460 kPa, Gas, x2 = 0.1202	961.2
373 K, 6460 kPa, Liquid, x2 = 0.5001	784.3
373 K, 7960 kPa, Gas, x2 = 0.1682	955.5
373 K, 7960 kPa, Liquid, x2 = 0.5505	790.5
373 K, 9470 kPa, Gas, x2 = 0.2401	944
373 K, 9470 kPa, Liquid, x2 = 0.6046	781.7
373 K, 10570 kPa, Gas, x2 = 0.352	923.9
373 K, 10570 kPa, Liquid, x2 = 0.6715	788.4
373 K, 11370 kPa, Gas, x2 = 0.4692	913.5
373 K, 11370 kPa, Liquid, x2 = 0.7259	780.3
393 K, 5060 kPa, Gas, x2 = 0.055	951.6
393 K, 5060 kPa, Liquid, x2 = 0.455	713.7
393 K, 5460 kPa, Gas, x2 = 0.0849	941.9
393 K, 5460 kPa, Liquid, x2 = 0.4831	744.8
393 K, 6970 kPa, Gas, x2 = 0.1218	932.1
393 K, 6970 kPa, Liquid, x2 = 0.5129	771.1
393 K, 8480 kPa, Gas, x2 = 0.1766	917.3
393 K, 8480 kPa, Liquid, x2 = 0.545	804.3
393 K, 9970 kPa, Gas, x2 = 0.255	895.6
393 K, 9970 kPa, Liquid, x2 = 0.5744	791.8
393 K, 11470 kPa, Gas, x2 = 0.4	856.8
393 K, 11470 kPa, Liquid, x2 = 0.6237	755.8
393 K, 11970 kPa, Gas, x2 = 0.6025	846.6
393 K, 11970 kPa, Liquid, x2 = 0.6629	719.7
